Patent US20250018048A1, “FLUCONAZOLE-COX INHIBITOR HYBRIDS: A DUAL-ACTING CLASS OF ANTIFUNGAL AZOLES” (Ramot at Tel-Aviv University Ltd., priority 2022, published 2025)
In brackets after ≈: the same amount, converted by molar mass.

Key:
Type in all cases: cell-based
[1] = test system: C. albicans 742 (erg11ΔΔ/erg3ΔΔ mutant C. albicans strain); assay: MIC80 broth double-dilution assay, strain lacking CYP51; conditions: YPAD medium, 30° C., 24 h; erg11ΔΔ/erg3ΔΔ mutant lacking CYP51
Method: (§1) The antifungal activities of the 24 azole-COX inhibitor hybrids were evaluated against a panel of 16 representative strains of different species of the genus Candida. Candida species cause both superficial and systemic infections. The panel included strains of C. albicans, C. glabrata, C. parapsilosis, C. tropicalis, C. guilliermondii, C. dubliniensis, and C. auris (Table S2). To evaluate antifungal activity, the minimal inhibitory concentration 80% (MIC80) values were determined, which were defined as the lowest drug concentrations with turbidity (measured at OD600) less than or equal to that of specific 1:5 dilutions of the growth control. As controls, FLC and VOR, were tested.
(§2) The clinically used FLC and VOR act primarily by preventing ergosterol biosynthesis via inhibition of CYP51. Analysis was done to determine whether fungal growth inhibition by the hybrids required the presence of the ERG11 gene that encodes for CYP51. The antifungal activities of hybrids 1 and 5 and of FLC and VOR were determined against an erg11ΔΔ/erg3ΔΔ mutant C. albicans strain and against C. albicans SN152 from which this double knockout strain was derived (Table S2). […] Yeast growth was followed at OD600 over 48 h in 96-well plates containing serial double dilutions of the tested hybrids.
(§3) C. albicans, C. glabrata, C. parapsilosis, C. guilliermondii, C. tropicalis, and C. dubliniensis MICs were determined using CLSI M27-A3 guidelines with minor modifications. Starter cultures were streaked from glycerol stock onto YPAD agar plates and grown for 24 h at 30° C. Colonies were suspended in 1 mL PBS and diluted to 1×10^−3 OD600 and then diluted 1:100 into fresh medium. Hybrids dissolved in DMSO were added to YPAD broth (32 μL stock solution in 1218 μL of YPAD broth), and serial double dilutions of hybrids in YPAD were prepared in flat-bottomed 96-well microplates (Corning) to enable testing of concentrations ranging from 64 μg/mL to 0.003 μg/mL. Control wells with yeast cells but no drug and blank wells containing only YPAD were prepared. An equal volume (100 μL) of yeast suspensions in YPAD broth was added to each well with the exceptions of the blank wells. MIC values (Tables S4-S6) were determined after 24 h at 30° C. by measuring the OD600 using a plate reader (Infinite M200 PRO, Tecan). MIC values were defined as the point at which the OD600 was reduced by >80% compared to the no-drug wells. Each concentration was tested in triplicate, and results were confirmed by two independent sets of experiments. FLC and VOR were used as control drugs.

[2] = test system: C. parapsilosis ATCC 22019; assay: MIC80 broth double-dilution assay; conditions: YPAD medium, 30° C., 24 h
Method: as §1
(§4) MIC80 values were determined using the broth microdilution method over a concentration range of 0.003-64 μg/mL. Orange circles represent C. albicans strains, yellow circles represent C. glabrata strains, and green circles represent C. parapsilosis, C. tropicalis, C. dubliniensis and C. auris. Cells were grown in YPAD medium at 30° C. (For C. auris strains 37° C.) 24 h. Each concentration was tested in triplicate, and results were confirmed in at least two independent experiments.
as §3

C. albicans P-87 = assay: MIC80 broth double-dilution assay; conditions: YPAD medium, 30° C., 24 h
Method: as §1, §4, §3

C. albicans ATCC 24433 = assay: MIC80 broth double-dilution assay; conditions: YPAD medium, 30° C., 24 h
Method: as §1, §4, §3

C. albicans ATCC 90028 = assay: MIC80 broth double-dilution assay; conditions: YPAD medium, 30° C., 24 h
Method: as §1, §4, §3

C. albicans SC5314 = assay: MIC80 broth double-dilution assay; conditions: YPAD medium, 30° C., 24 h
Method: as §1, §4, §3

C. dubliniensis T-99 = assay: MIC80 broth double-dilution assay; conditions: YPAD medium, 30° C., 24 h
Method: as §1, §4, §3

C. tropicalis 660 = assay: MIC80 broth double-dilution assay; conditions: YPAD medium, 30° C., 24 h
Method: as §1, §4, §3

C. auris ATCC MYA5002 = assay: MIC broth double-dilution assay with MTT (CLSI M27-A3); conditions: YPAD medium, 37° C., 24 h, growth score 0 or 1
Method: (§5) Minimal inhibitory concentration broth double-dilution assay: C. auris minimal inhibitory concentrations (MICs) were determined using CLSI M27-A3 guidelines with minor modifications. Starter cultures were streaked from glycerol stock onto YPAD agar plates and grown for 24 h at 37° C. Colonies were suspended in 1 mL PBS and diluted to 1×10^−3 optical density at 600 nm (OD600) and then diluted 1:100 into fresh medium. hybrids dissolved in DMSO were added to YPAD broth (32 μL stock solution in 1218 μL of YPAD broth), and serial double dilutions of hybrids in YPAD were prepared in flat-bottomed 96-well microplates (Corning) to enable testing of concentrations ranging from 64 μg/mL to 0.007 μg/mL. Control wells with yeast cells but no drug and blank wells containing only YPAD were prepared. An equal volume (100 μL) of yeast suspension in YPAD broth was added to each well with the exceptions of the blank wells. After incubation for 24 h at 37° C., MTT (50 μL of a 1 mg/mL solution in ddH2O) was added to each well followed by additional incubation at 37° C. for 2 h. MIC values (Table S3) were defined as the lowest concentration of an antifungal agent that caused a specified reduction in visible growth as per the CLSI M27-A3 protocol. The magnitude of reduction in visible growth was assessed using the following numerical scale: 0, optically clear; 1, slightly hazy; 2, prominent decrease (˜50%) in visible growth; 3, slight reduction in visible growth; and 4, no reduction in visible growth. The MIC was defined based on reduction in growth to 0 or 1. Results were confirmed in two independent experiments, and each concentration was tested in triplicate. FLC and VOR were used as control drugs.

C. auris ATCC MYA5001 = assay: as above; conditions: YPAD medium, 37° C., 24 h, growth score 0 or 1
Method: as §5

C. albicans SN152 = assay: MIC80 broth double-dilution assay; conditions: YPAD medium, 30° C., 24 h; parent strain of the erg11ΔΔ/erg3ΔΔ mutant
Method: as §1, §4, §2, §3

C. guilliermondii T-47 = assay: MIC80 broth double-dilution assay; conditions: YPAD medium, 30° C., 24 h
Method: as §1, §3

Row | Compound | MIC80 against C. albicans 742 [1] | MIC80 against C. parapsilosis 22019 [2] | MIC80 against C. albicans P-87 (C. albicans P-87) | MIC80 against C. albicans 24433 (C. albicans ATCC 24433) | MIC80 against C. albicans 90028 (C. albicans ATCC 90028) | MIC80 against C. albicans SC5314 (C. albicans SC5314) | MIC80 against C. dubliniensis T-99 (C. dubliniensis T-99) | MIC80 against C. tropicalis 660 (C. tropicalis 660) | MIC against C. auris 5002 (C. auris ATCC MYA5002) | MIC against C. auris 5001 (C. auris ATCC MYA5001) | MIC80 against C. albicans SN152 (C. albicans SN152) | MIC80 against C. guilliermondii T-47 (C. guilliermondii T-47)
1 | COc1ccc2cc([C@@H](C)C(=O)NC[C@](O)(Cn3cncn3)c3ccc(F)cc3F)ccc2c1 [Hybrid 10] | >64 µg/mL | 1 µg/mL (≈ 2.14 µM) | 0.25 µg/mL (≈ 0.536 µM) | 0.25 µg/mL (≈ 0.536 µM) | 0.12 µg/mL (≈ 0.257 µM) | 0.12 µg/mL (≈ 0.257 µM) | 2 µg/mL (≈ 4.29 µM) | 4 µg/mL (≈ 8.57 µM) | 16 µg/mL (≈ 34.3 µM) | 0.5 µg/mL (≈ 1.07 µM) | 0.012 µg/mL (≈ 0.0257 µM) | 1 µg/mL (≈ 2.14 µM)
2 | O=C(NC[C@](O)(Cn1cncn1)c1ccc(F)cc1F)c1cc(-c2ccc(F)cc2F)ccc1O [Hybrid 19] | 64 µg/mL (≈ 132 µM) | 0.06 µg/mL (≈ 0.123 µM) | 0.03 µg/mL (≈ 0.0617 µM) | 0.06 µg/mL (≈ 0.123 µM) | 0.12 µg/mL (≈ 0.247 µM) | 0.06 µg/mL (≈ 0.123 µM) | 2 µg/mL (≈ 4.11 µM) | 0.12 µg/mL (≈ 0.247 µM) | 2 µg/mL (≈ 4.11 µM) | 0.12 µg/mL (≈ 0.247 µM) | 0.03 µg/mL (≈ 0.0617 µM) | 2 µg/mL (≈ 4.11 µM)
3 | O=C(NC[C@](O)(Cn1cncn1)c1ccc(F)cc1F)c1cccnc1Nc1cccc(C(F)(F)F)c1 [Hybrid 17] | 16 µg/mL (≈ 30.9 µM) | 0.5 µg/mL (≈ 0.964 µM) | 0.25 µg/mL (≈ 0.482 µM) | 0.12 µg/mL (≈ 0.231 µM) | 0.12 µg/mL (≈ 0.231 µM) | 0.12 µg/mL (≈ 0.231 µM) | 2 µg/mL (≈ 3.86 µM) | 2 µg/mL (≈ 3.86 µM) | 4 µg/mL (≈ 7.72 µM) | 0.25 µg/mL (≈ 0.482 µM) | 0.06 µg/mL (≈ 0.116 µM) | 2 µg/mL (≈ 3.86 µM)
4 | O=C(Cc1ccccc1Nc1c(Cl)cccc1Cl)NC[C@](O)(Cn1cncn1)c1ccc(F)cc1F [Hybrid 23] | >64 µg/mL | 0.5 µg/mL (≈ 0.939 µM) | 1 µg/mL (≈ 1.88 µM) | 1 µg/mL (≈ 1.88 µM) | 1 µg/mL (≈ 1.88 µM) | 1 µg/mL (≈ 1.88 µM) | 4 µg/mL (≈ 7.51 µM) | >64 µg/mL | 64 µg/mL (≈ 120 µM) | 2 µg/mL (≈ 3.76 µM) | 1 µg/mL (≈ 1.88 µM) | 8 µg/mL (≈ 15 µM)
5 | C[C@@H](C(=O)NC[C@](O)(Cn1cncn1)c1ccc(F)cc1F)c1ccc(-c2ccccc2)c(F)c1 [Hybrid 6] | >64 µg/mL | 2 µg/mL (≈ 4.16 µM) | 0.03 µg/mL (≈ 0.0624 µM) | 0.12 µg/mL (≈ 0.25 µM) | 0.12 µg/mL (≈ 0.25 µM) | 0.03 µg/mL (≈ 0.0624 µM) | 2 µg/mL (≈ 4.16 µM) | 8 µg/mL (≈ 16.6 µM) |  |  | 0.06 µg/mL (≈ 0.125 µM) | 2 µg/mL (≈ 4.16 µM)
6 | O=C(NC[C@@](O)(Cn1cncn1)c1ccc(F)cc1F)c1ccccc1O [Hybrid 22] | >64 µg/mL | 8 µg/mL (≈ 21.4 µM) | 16 µg/mL (≈ 42.7 µM) | 16 µg/mL (≈ 42.7 µM) | 8 µg/mL (≈ 21.4 µM) | 8 µg/mL (≈ 21.4 µM) | >64 µg/mL | 32 µg/mL (≈ 85.5 µM) |  |  | 8 µg/mL (≈ 21.4 µM) | 16 µg/mL (≈ 42.7 µM)
